#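 The compound was tested at five concentrations on cells cultured in 96-well plates, with a 48-hour exposure period. GI50 = concentration required for 50% inhibition of growth. Definition used: TGI = concentration required for complete inhibition of growth.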
# Legend:
# Assay in all cases: DTP human tumour cell line panel, 48 h
# CAKI-1 renal = tested on: CAKI-1 renal
# SF-268 CNS = tested on: SF-268 CNS
# RXF 393 renal = tested on: RXF 393 renal
# SN12C renal = tested on: SN12C renal
# OVCAR-5 ovarian = tested on: OVCAR-5 ovarian
# SK-MEL-5 melanoma = tested on: SK-MEL-5 melanoma
# ACHN renal = tested on: ACHN renal
# MCF7 breast = tested on: MCF7 breast
# NCI/ADR-RES ovarian = tested on: NCI/ADR-RES ovarian
# SK-MEL-28 melanoma = tested on: SK-MEL-28 melanoma
# COLO 205 colon = tested on: COLO 205 colon
# MOLT-4 leukemia = tested on: MOLT-4 leukemia
# EKVX NSCLC = tested on: EKVX NSCLC
# UO-31 renal = tested on: UO-31 renal
# M14 melanoma = tested on: M14 melanoma
# MALME-3M melanoma = tested on: MALME-3M melanoma
# SNB-19 CNS = tested on: SNB-19 CNS
# NCI-H522 lung = tested on: NCI-H522 lung
# NCI-H460 lung = tested on: NCI-H460 lung
# SK-OV-3 ovarian = tested on: SK-OV-3 ovarian
# HCC-2998 colon = tested on: HCC-2998 colon
# KM12 colon = tested on: KM12 colon
# MDA-MB-435 = tested on: MDA-MB-435
# RPMI-8226 leukemia = tested on: RPMI-8226 leukemia
# HS 578T breast = tested on: HS 578T breast
# HL-60(TB) leukemia = tested on: HL-60(TB) leukemia
# IGROV1 ovarian = tested on: IGROV1 ovarian
# OVCAR-3 ovarian = tested on: OVCAR-3 ovarian
# SNB-75 CNS = tested on: SNB-75 CNS
# SK-MEL-2 melanoma = tested on: SK-MEL-2 melanoma
# TK-10 renal = tested on: TK-10 renal
# OVCAR-4 ovarian = tested on: OVCAR-4 ovarian
# DU-145 prostate = tested on: DU-145 prostate
# SF-295 CNS = tested on: SF-295 CNS
# U251 CNS = tested on: U251 CNS
# HCT-15 colon = tested on: HCT-15 colon
# LOX IMVI melanoma = tested on: LOX IMVI melanoma
# PC-3 prostate = tested on: PC-3 prostate
# SW-620 colon = tested on: SW-620 colon
# HT29 colon = tested on: HT29 colon
# SR leukemia = tested on: SR leukemia
# UACC-257 melanoma = tested on: UACC-257 melanoma
# T-47D breast = tested on: T-47D breast
# A549 NSCLC = tested on: A549 NSCLC
# MDA-MB-231 breast = tested on: MDA-MB-231 breast
# A498 renal = tested on: A498 renal
# K-562 leukemia = tested on: K-562 leukemia
# HOP-62 NSCLC = tested on: HOP-62 NSCLC
# 786-0 renal = tested on: 786-0 renal
# SF-539 CNS = tested on: SF-539 CNS
# HCT-116 colon = tested on: HCT-116 colon
# BT-549 breast = tested on: BT-549 breast
# HOP-92 NSCLC = tested on: HOP-92 NSCLC
# NCI-H226 lung = tested on: NCI-H226 lung
# UACC-62 melanoma = tested on: UACC-62 melanoma
# OVCAR-8 ovarian = tested on: OVCAR-8 ovarian
smiles,measurement,setting,value
N#Cc1nc(-c2ccccc2)oc1S(=O)(=O)N1CCN(CCc2ccccn2)CC1,GI50,CAKI-1 renal,1180 nM
same,TGI,CAKI-1 renal,2410 nM
same,GI50,SF-268 CNS,10.5 µM
same,TGI,SF-268 CNS,35.9 µM
same,GI50,RXF 393 renal,1890 nM
same,TGI,RXF 393 renal,3.74 µM
same,GI50,SN12C renal,10.4 µM
same,TGI,SN12C renal,24.2 µM
same,GI50,OVCAR-5 ovarian,12.5 µM
same,TGI,OVCAR-5 ovarian,26 µM
same,GI50,SK-MEL-5 melanoma,16.7 µM
same,TGI,SK-MEL-5 melanoma,32.4 µM
same,GI50,ACHN renal,1670 nM
same,TGI,ACHN renal,3.09 µM
same,GI50,MCF7 breast,1830 nM
same,TGI,MCF7 breast,10.2 µM
same,GI50,NCI/ADR-RES ovarian,19.3 µM
same,TGI,NCI/ADR-RES ovarian,94.5 µM
same,GI50,SK-MEL-28 melanoma,2900 nM
same,TGI,SK-MEL-28 melanoma,9.42 µM
same,GI50,COLO 205 colon,1540 nM
same,TGI,COLO 205 colon,3.02 µM
same,GI50,MOLT-4 leukemia,2160 nM
same,TGI,MOLT-4 leukemia,8.35 µM
same,GI50,EKVX NSCLC,23.3 µM
same,TGI,EKVX NSCLC,68.2 µM
same,GI50,UO-31 renal,2640 nM
same,TGI,UO-31 renal,9.81 µM
same,GI50,M14 melanoma,2290 nM
same,TGI,M14 melanoma,9.51 µM
same,GI50,MALME-3M melanoma,1870 nM
same,TGI,MALME-3M melanoma,3.69 µM
same,GI50,SNB-19 CNS,20.5 µM
same,TGI,SNB-19 CNS,57.9 µM
same,GI50,NCI-H522 lung,1040 nM
same,TGI,NCI-H522 lung,2360 nM
same,GI50,NCI-H460 lung,12.3 µM
same,TGI,NCI-H460 lung,32.7 µM
same,GI50,SK-OV-3 ovarian,30.4 µM
same,TGI,SK-OV-3 ovarian,> 100 µM
same,GI50,HCC-2998 colon,14.2 µM
same,TGI,HCC-2998 colon,28.9 µM
same,GI50,KM12 colon,13.5 µM
same,TGI,KM12 colon,36.4 µM
same,GI50,MDA-MB-435,4.08 µM
same,TGI,MDA-MB-435,16.7 µM
same,GI50,RPMI-8226 leukemia,2750 nM
same,GI50,HS 578T breast,17.3 µM
same,TGI,HS 578T breast,61.9 µM
same,GI50,HL-60(TB) leukemia,1550 nM
same,TGI,HL-60(TB) leukemia,4.85 µM
same,GI50,IGROV1 ovarian,15.1 µM
same,TGI,IGROV1 ovarian,47.9 µM
same,GI50,OVCAR-3 ovarian,1670 nM
same,TGI,OVCAR-3 ovarian,3.22 µM
same,GI50,SNB-75 CNS,12.3 µM
same,TGI,SNB-75 CNS,24.8 µM
same,GI50,SK-MEL-2 melanoma,12.4 µM
same,TGI,SK-MEL-2 melanoma,29.2 µM
same,GI50,TK-10 renal,7.32 µM
same,TGI,TK-10 renal,19.7 µM
same,GI50,OVCAR-4 ovarian,2910 nM
same,TGI,OVCAR-4 ovarian,9.94 µM
same,GI50,DU-145 prostate,4.56 µM
same,TGI,DU-145 prostate,22.3 µM
same,GI50,SF-295 CNS,29.2 µM
same,TGI,SF-295 CNS,87.2 µM
same,GI50,U251 CNS,13.5 µM
same,TGI,U251 CNS,27 µM
same,GI50,HCT-15 colon,1860 nM
same,TGI,HCT-15 colon,5.87 µM
same,GI50,LOX IMVI melanoma,1220 nM
same,TGI,LOX IMVI melanoma,2690 nM
same,GI50,PC-3 prostate,12.3 µM
same,TGI,PC-3 prostate,26.7 µM
same,GI50,SW-620 colon,985 nM
same,TGI,SW-620 colon,2700 nM
same,GI50,HT29 colon,1720 nM
same,TGI,HT29 colon,3.44 µM
same,GI50,SR leukemia,1410 nM
same,TGI,SR leukemia,5.19 µM
same,GI50,UACC-257 melanoma,4.58 µM
same,TGI,UACC-257 melanoma,17.5 µM
same,GI50,T-47D breast,1870 nM
same,TGI,T-47D breast,4.41 µM
same,GI50,A549 NSCLC,24.6 µM
same,TGI,A549 NSCLC,> 100 µM
same,GI50,MDA-MB-231 breast,15.5 µM
same,TGI,MDA-MB-231 breast,34.4 µM
same,GI50,A498 renal,> 100 µM
same,TGI,A498 renal,> 100 µM
same,GI50,K-562 leukemia,562 nM
same,TGI,K-562 leukemia,7.78 µM
same,GI50,HOP-62 NSCLC,20.8 µM
same,TGI,HOP-62 NSCLC,58.9 µM
same,GI50,786-0 renal,2210 nM
same,TGI,786-0 renal,6.09 µM
same,GI50,SF-539 CNS,3.99 µM
same,TGI,SF-539 CNS,13.7 µM
same,GI50,HCT-116 colon,1280 nM
same,TGI,HCT-116 colon,2610 nM
same,GI50,BT-549 breast,3.36 µM
same,TGI,BT-549 breast,12.7 µM
same,GI50,HOP-92 NSCLC,2230 nM
same,TGI,HOP-92 NSCLC,6.92 µM
same,GI50,NCI-H226 lung,2580 nM
same,TGI,NCI-H226 lung,7.78 µM
same,GI50,UACC-62 melanoma,9.85 µM
same,TGI,UACC-62 melanoma,23.2 µM
same,GI50,OVCAR-8 ovarian,14 µM
same,TGI,OVCAR-8 ovarian,49.9 µM

# Reference: PubChem BioAssay (NCI)
